This assay addresses T1, soluble guanylate cyclase (sGC) (Homo sapiens, UniProt Q02108+Q02153).
T1 construct: endogenously expressing soluble guanylate cyclase (sGC); endogenous in cells; host or cells: HEK293
T1 sequence (Q02153 1-619): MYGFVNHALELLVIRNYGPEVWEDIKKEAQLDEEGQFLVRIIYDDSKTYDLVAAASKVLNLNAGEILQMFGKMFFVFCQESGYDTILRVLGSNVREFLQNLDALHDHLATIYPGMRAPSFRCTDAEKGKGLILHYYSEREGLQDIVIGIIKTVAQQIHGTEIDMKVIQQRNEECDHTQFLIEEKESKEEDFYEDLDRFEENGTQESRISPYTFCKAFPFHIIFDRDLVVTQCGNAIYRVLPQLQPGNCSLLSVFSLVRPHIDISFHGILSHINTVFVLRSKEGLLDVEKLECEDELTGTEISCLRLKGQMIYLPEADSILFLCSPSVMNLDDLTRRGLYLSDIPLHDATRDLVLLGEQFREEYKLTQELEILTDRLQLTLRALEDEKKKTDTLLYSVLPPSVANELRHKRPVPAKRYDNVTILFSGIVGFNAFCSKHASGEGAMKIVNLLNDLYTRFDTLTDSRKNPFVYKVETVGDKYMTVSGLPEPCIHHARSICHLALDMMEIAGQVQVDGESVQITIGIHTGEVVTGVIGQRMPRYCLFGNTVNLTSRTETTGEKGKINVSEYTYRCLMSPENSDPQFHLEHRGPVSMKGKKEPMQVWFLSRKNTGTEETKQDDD
T1 sequence (Q02108 1-690): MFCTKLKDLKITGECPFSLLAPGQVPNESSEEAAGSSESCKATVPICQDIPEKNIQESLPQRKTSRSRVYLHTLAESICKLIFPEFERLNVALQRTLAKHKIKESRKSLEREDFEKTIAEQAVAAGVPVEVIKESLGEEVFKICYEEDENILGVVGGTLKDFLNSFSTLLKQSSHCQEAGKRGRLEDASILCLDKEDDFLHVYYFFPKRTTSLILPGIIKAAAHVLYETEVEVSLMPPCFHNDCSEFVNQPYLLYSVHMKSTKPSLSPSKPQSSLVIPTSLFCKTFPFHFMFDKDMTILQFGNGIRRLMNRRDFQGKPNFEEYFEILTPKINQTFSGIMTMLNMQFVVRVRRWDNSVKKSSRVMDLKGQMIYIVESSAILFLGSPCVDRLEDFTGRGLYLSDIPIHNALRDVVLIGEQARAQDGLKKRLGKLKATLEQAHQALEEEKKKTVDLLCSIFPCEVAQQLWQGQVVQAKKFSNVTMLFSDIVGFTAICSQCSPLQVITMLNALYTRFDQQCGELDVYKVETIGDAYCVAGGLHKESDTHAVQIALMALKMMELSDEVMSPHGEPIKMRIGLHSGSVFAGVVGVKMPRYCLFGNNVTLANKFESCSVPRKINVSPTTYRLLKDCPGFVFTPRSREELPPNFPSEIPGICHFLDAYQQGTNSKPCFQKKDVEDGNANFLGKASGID
Nature of the assay: sGC-HEK-cGMP assay. It counts as cell-based. Conditions: HEK293 cells, 10 μM SNP, percentage of sGC activity obtained with positive control BAY 41-2272 (= 100%); for Emax at 10 µM: compound at 10 μM; for Emax at 30 µM: compound at 30 μM. An outline of the steps:
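HEK293 cells endogenously expressing sGC, preincubated 15 min at 37 °C with 0.5 mM IBMX, then exposed to compound plus 10 μM sodium nitroprusside for 10 min at 37 °C. Reaction stopped and cells lysed with 0.1 M HCl; cGMP quantified by LC/MS against a standard curve; EC50 from concentration-response curves.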

`Fc1ccccc1Cn1nc(-c2ccccn2)nc1-c1ccccn1` [Compound I-1] gave an Emax at 10 µM of 5 to 10% and a maximal effect (Emax) at 30 µM of 20 to 40%.
`Fc1ccccc1Cn1nc(-c2ncccn2)nc1-c1cscn1` [Compound I-3] had a maximal effect (Emax) at 10 µM of 0 to 5% and an Emax at 30 µM of 20 to 40%.
For `Fc1ccccc1Cn1nc(-c2ccccn2)nc1-c1cscn1` [Compound I-4], in that order: 20 to 40% and 40 to 60%.
For `Fc1ccccc1Cn1nc(-c2ccccn2)nc1-c1ncco1` [Compound I-6], in that order: 20 to 40% and 20 to 40%.
For `Fc1ccccc1Cn1nc(-c2ccccn2)nc1-c1cocn1` [Compound I-12, 4-(1-(2-fluorobenzyl)-3-(pyridin-2-yl)-1H-1,2,4-triazol-5-yl)oxazole], in that order: 20 to 40% and 40 to 60%.
In turn, `Fc1ccccc1Cn1nc(-c2ccccn2)nc1-c1nccs1` [Compound I-25] yielded a maximal effect (Emax) at 10 µM of 20 to 40% and an Emax at 30 µM of 40 to 60%.
For `Fc1ccccc1Cn1nc(-c2ncccn2)nc1-c1nccs1` [Compound I-30], in that order: 10 to 20% and 20 to 40%.
For `Fc1ccc(-c2nc(-c3nccs3)n(Cc3ccccc3F)n2)nc1` [Compound I-38], in that order: 40 to 60% and 20 to 40%.
For `Fc1ccccc1Cn1nc(-c2cscn2)nc1-c1nccs1` [Compound I-40], in that order: 20 to 40% and 10 to 20%.
Consider `Fc1ccccc1Cn1nc(-c2nccs2)nc1-c1cscn1` [Compound I-41], for which the maximum response (Emax) at 10 µM lay within 40 to 60% and the Emax at 30 µM was 60 to 80%.
For `Nc1ccnc(-c2nc(-c3nccs3)n(Cc3ccccc3F)n2)c1` [Compound I-44], in that order: 40 to 60% and 60 to 80%.
Compound `Fc1ccccc1Cn1nc(-c2ncccn2)nc1-c1cocn1` [Compound I-46] showed an Emax at 10 µM of 20 to 40% and an Emax at 30 µM of 20 to 40%.
The compound `Nc1ccnc(-c2nc(-c3nccs3)n(Cc3ccccc3F)n2)n1` [Compound I-48, 2-(1-(2-fluorobenzyl)-5-(thiazol-2-yl)-1H-1,2,4-triazol-3-yl)pyrimidin-4-amine] displayed an Emax at 10 µM of 40 to 60% and an Emax at 30 µM of 60 to 80%.
The compound `Fc1ccccc1Cn1nc(-c2ccccn2)nc1-n1cncn1` [Compound I-50, 2′-(2-fluorobenzyl)-5′-(pyridin-2-yl)-2′H-1,3′-bi(1′,2′,4-triazole)] gave an Emax at 10 µM of 20 to 40% and a maximum response (Emax) at 30 µM of 20 to 40%.
For `Nc1ccnc(-c2nc(-c3cscn3)n(Cc3ccccc3F)n2)c1` [Compound I-53, 2-(1-(2-fluorobenzyl)-5-(thiazol-4-yl)-1H-1,2,4-triazol-3-yl)pyridin-4-amine], the maximal response (Emax) at 10 µM lay within 40 to 60% and the Emax at 30 µM lay in the range of 60 to 80%.
For `COC(=O)N(C)c1c(N)nc(-c2nc(-c3nccs3)n(Cc3ccccc3F)n2)nc1N` [Compound I-61, methyl 4,6-diamino-2-(1-(2-fluorobenzyl)-5-(thiazol-2-yl)-1H-1,2,4-triazol-3-yl)pyrimidin-5-yl(methyl)carbamate], in that order: 20 to 40% and 40 to 60%.

The record behind these values is patent publication US9061030B2, “sGC stimulators” (IRONWOOD PHARMACEUTICALS, INC., priority 2010, dated 2015).
